Experimental data as given in paper PMC8667948, “Mechanism of biotin carboxylase inhibition by ethyl 4-[[2-chloro-5-(phenylcarbamoyl)phenyl]sulphonylamino]benzoate” (Journal of Enzyme Inhibition and Medicinal Chemistry, 2021).
Read-outs that look alike come from different tables or passages of the source.

Key:
BC = test system: BC; design: method as in PMID 4922289; conditions: % activity of biotin; cited from earlier work
biotin carboxylase (BC) [1] = molecular target: T1, biotin carboxylase (BC) (Escherichia coli, UniProt P24182); assay: Biotin carboxylase inhibition assay, ATP or biotin varied (pyruvate kinase/lactic dehydrogenase coupled); type: biochemical; conditions: SABA1 0, 75, 150 µM
T1 construct: His tag (N); made in house
Experimental: (§1) For inhibition studies that varied ATP or biotin, initial velocities were measured as previously reported. In brief, pyruvate kinase and lactic dehydrogenase were used to couple ADP production to NADH oxidation, which can be measured spectrophotometrically at 340 nm. For inhibition studies varying ADP, activity was determined by following the production of inorganic phosphate (Pi) using the EnzChek® Phosphate Assay Kit (Molecular Probes) according to the manufacturer’s protocol. In brief, purine nucleoside phosphorylase converts 2-amino-6-mercapto-7-methylpurine riboside to ribose 1-phosphate and 2-amino-6-mercapto-7-methylpurine in the presence of Pi. This reaction is monitored at […][32]. Kinetic data were collected on a Cary60 UV-Vis spectrophotometer (Agilent Technologies)
To determine the inhibition pattern versus ATP, ATP was varied from 0.05 mM to 1.0 mM. SABA1 was held at fixed concentrations of 0.0 µM, 75 µM, or 150 µM. Biotin was held constant at 40 mM. […]
Data for inhibition studies varying ATP or biotin were analysed by nonlinear regression using the programs of Cleland[33]. Competitive inhibition data were fitted to Equation (1) where v is the experimentally determined velocity, V is maximal velocity, A is substrate concentration, Km is the Michaelis constant, I is inhibitor concentration and Kis is the inhibition constant for the slope. […]

biotin carboxylase (BC) [2] = molecular target: T1, biotin carboxylase (BC); assay: Biotin carboxylase inhibition versus ADP (EnzChek Pi assay); type: biochemical; conditions: ADP varied 0.19-19 µM; ATP 0.6 mM; biotin 40 mM; SABA1 100 µM; fit to Equation (5)
Experimental: as §1
To determine the inhibition pattern versus ADP using the Pi assay, ADP was varied from 0.19 µM to 19 µM. ATP was held constant at 0.6 mM, biotin was held constant 40 mM, and SABA1 was held constant at 100 µM. Each reaction cocktail was incubated in the presence or absence of SABA1 for 10 min. The reaction was started by addition of biotin.
Data for inhibition studies varying ADP were analysed by nonlinear regression using the program Enzfitter[34]. […]

biotin carboxylase (BC) [3] = molecular target: T1, biotin carboxylase (BC); assay: Multiple inhibition assay (Yonetani-Theorell) on BC; type: biochemical; conditions: aminooxazole varied 0.2-3.2 µM at fixed SABA1 0, 75, 150 µM; ATP 0.2 mM, biotin 40 mM; intersecting pattern
Experimental: To determine the multiple inhibition pattern with respect to ATP, aminooxazole was varied from 0.2 µM to 3.2 µM. SABA1 was held at fixed concentrations of 0.0 µM, 75 µM, or 150 µM. ATP and biotin were held constant at 0.2 mM and 40 mM, respectively. To determine the multiple inhibition pattern with respect to biotin, desthiobiotin was varied from 1.0 mM to 20 mM. SABA1 was held at fixed concentrations of 0.0 µM, 75 µM, or 150 µM. ATP and biotin were held constant at 0.2 mM and 40 mM, respectively.
Multiple inhibition data were fitted to Equation (3) where v is the experimentally determined velocity, V is maximal velocity, L and J are the concentration of the two inhibitors, KL and KJ are the apparent inhibition constants of those respective inhibitors, and α is the interaction factor of the two inhibitors. (3) v=V/1+L/KL+J/KJ+LJ/αKLKJ
Competitive inhibition means that binding of the inhibitor and the substrate to the enzyme are mutually exclusive. […] To determine if SABA1 can bind in the ATP binding site, biotin binding site or both, multiple inhibition analysis was performed as described by Yonetani and Theorell[42]. Multiple inhibition analysis is used to define the topological relationship between two different enzyme inhibitors. Initial velocities are measured while one inhibitor is varied against fixed increasing concentrations of the second inhibitor. […]

[4] = molecular target: T2, Acetyl-CoA carboxylase (ACC) (Escherichia coli, UniProt P24182); assay: ACC assay, ATP varied (BC:BCCP:CT 1:2:1); type: biochemical; conditions: ATP varied 1.0-16 µM, acetyl-CoA 0.20 mM, SABA1 0, 50, 100 µM
T2 construct: His tag (N); made in house
Experimental: As stated above, the components of ACC were purified separately. Purified BC, BCCP, and CT were combined in a 1:2:1 molar ratio and allowed to equilibrate for 1 h prior to assaying ACC. To determine the inhibition pattern versus ATP, ATP was varied from 1.0 µM to 16 µM. SABA1 was held at fixed concentrations of 0.0 µM, 50 µM, or 100 µM. Acetyl-CoA was held constant at 0.20 mM. The reaction was started by the addition of enzyme.
Non-competitive inhibition data were fitted to Equation (2) where v is the experimentally determined velocity, V is maximal velocity, A is substrate concentration, Km is the Michaelis constant, I is inhibitor concentration and Kii is the inhibition constant for the intercept and Kis is the inhibition constant for the slope. (2) v=VA/Km(1+I/Kis)+A(1+I/Kii)

[5] = test system: efflux compromised E. coli (ΔtolC::tet); conditions: cited from earlier work
[6] = test system: efflux compromised P. aeruginosa strain PAO397; design: method as in PMID 26169404; conditions: cited from earlier work
E. coli ACC = test system: E. coli ACC; design: method as in PMID 26169404; conditions: cited from earlier work

SMILES	activity as slow alternate substrate, relative to biotin (BC) [%]	Ki (biotin carboxylase (BC) [1]; ATP varied 0.05-1.0 mM, biotin constant 40 mM (subsaturating), read-out: Kis, competitive inhibition versus ATP) [µM]	Ki (biotin carboxylase (BC) [1]; biotin varied 20-200 mM, ATP constant 0.2 mM (subsaturating), read-out: Kis, competitive inhibition versus biotin) [µM]	Ki, uncompetitive inhibition versus ADP (biotin carboxylase (BC) [2]) [µM]	α value (interaction factor of the two inhibitors) (biotin carboxylase (BC) [3])	Ki ([4]; read-out: Kii, non-competitive inhibition versus ATP) [µM]	Ki ([4]; read-out: Kis, non-competitive inhibition versus ATP) [µM]	MIC [5] [µM]	prolongs the doubling time [6] [%]	IC50 (E. coli ACC) [µM]
C[C@@H]1NC(=O)N[C@@H]1CCCCCC(=O)O [Desthiobiotin]	0.2									
CCOC(=O)c1ccc(NS(=O)(=O)c2cc(C(=O)Nc3ccccc3)ccc2Cl)cc1 [SABA1, ethyl 4-[[2-chloro-5-(phenylcarbamoyl)phenyl]sulfonylamino]benzoate]		242 ± 32	142 ± 12.3	10.3 ± 0.1	0.6	23.3 ± 4.4	96.3 ± 31.6	0.45 to 0.9	30	4
